Experimental data published in ChEMBL document CHEMBL1201862, “PubChem BioAssay data set” (2004).
Blank lines part the entries; values can stand above or below the compound they belong to. Active and inactive are the calls of the source.

Legend:
[1] = biological target: T1, Hexokinase HKDC1 (Homo sapiens, UniProt Q2TB90); experiment: SAR analysis of small molecule inhibitors of hexokinase domain containing I (HKDC1). [Related pubchem assays (depositor defined):AID493160, AID493190]; format: functional
T1 sequence (Q2TB90 whole entry): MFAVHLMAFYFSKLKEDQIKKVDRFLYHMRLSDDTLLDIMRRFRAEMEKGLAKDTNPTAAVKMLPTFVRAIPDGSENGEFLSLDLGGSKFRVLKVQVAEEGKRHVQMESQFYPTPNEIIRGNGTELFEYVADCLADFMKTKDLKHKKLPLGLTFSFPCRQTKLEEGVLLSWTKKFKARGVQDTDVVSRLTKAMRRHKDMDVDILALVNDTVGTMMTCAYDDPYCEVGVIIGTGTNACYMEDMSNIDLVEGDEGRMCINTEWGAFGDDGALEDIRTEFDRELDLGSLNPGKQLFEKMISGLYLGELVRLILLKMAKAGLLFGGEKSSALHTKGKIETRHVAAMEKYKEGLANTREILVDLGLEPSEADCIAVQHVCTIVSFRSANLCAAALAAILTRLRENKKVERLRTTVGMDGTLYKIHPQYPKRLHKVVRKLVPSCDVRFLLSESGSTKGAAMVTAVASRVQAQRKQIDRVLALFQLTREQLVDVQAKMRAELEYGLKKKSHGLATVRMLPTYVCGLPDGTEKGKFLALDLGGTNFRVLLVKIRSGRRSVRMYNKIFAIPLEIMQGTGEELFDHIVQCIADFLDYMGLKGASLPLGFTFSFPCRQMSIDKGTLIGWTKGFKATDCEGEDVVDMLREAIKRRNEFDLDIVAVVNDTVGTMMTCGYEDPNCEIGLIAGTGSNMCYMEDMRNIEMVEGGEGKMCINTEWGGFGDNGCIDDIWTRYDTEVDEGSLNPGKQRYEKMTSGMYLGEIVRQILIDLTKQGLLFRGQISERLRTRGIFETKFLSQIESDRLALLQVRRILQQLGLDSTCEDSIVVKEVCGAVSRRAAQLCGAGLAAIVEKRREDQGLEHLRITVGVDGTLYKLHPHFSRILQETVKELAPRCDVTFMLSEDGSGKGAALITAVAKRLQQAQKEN

[2] = biological target: Hexokinase-1 (Homo sapiens, UniProt P19367); experiment: SAR analysis of small molecule inhibitors of hexokinase domain containing I (HKDC1) in the hexokinase 1 selectivity assay. [Related pubchem assays (depositor defined):AID493160, AID493190]; format: functional
[3] = biological target: DNA (cytosine-5)-methyltransferase 1 (Homo sapiens, UniProt P26358); experiment: inhibition of DNA methylation by DNMT1 – biochemical, fluorescent molecular beacon, confirmation (AID 602386); format: functional
[4] = biological target: Induced myeloid leukemia cell differentiation protein Mcl-1 (Homo sapiens, UniProt Q07820); format: functional
[5] = biological target: T2, Heat shock 70 kDa protein 1A (Homo sapiens, UniProt P0DMV8); experiment: small molecules displacing fluorescent ligand from Hsp70 – biochemical, fluorescence polarization, primary screen (AID 583)
[6] = biological target: T3, RNA-binding protein pos-1 (Caenorhabditis elegans, UniProt G5EF15); experiment: disruptors of C. elegans POS-1 RNA interaction – biochemical, fluorescence polarization, dose response (AID 1964);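 further: purified POS-1 fused to maltose binding protein made in E. coli; potency of compounds blocking POS-1 binding to fluorescent RNA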
T3 sequence (G5EF15 whole entry): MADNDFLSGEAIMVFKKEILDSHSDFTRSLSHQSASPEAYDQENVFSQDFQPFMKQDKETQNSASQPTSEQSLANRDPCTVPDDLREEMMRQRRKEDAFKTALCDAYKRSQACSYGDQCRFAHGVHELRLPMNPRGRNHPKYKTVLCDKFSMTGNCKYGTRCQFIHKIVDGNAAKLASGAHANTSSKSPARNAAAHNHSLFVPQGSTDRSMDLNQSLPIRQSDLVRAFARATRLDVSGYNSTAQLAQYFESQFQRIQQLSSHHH

[7] = biological target: ORF 73 (Human herpesvirus 8, UniProt O40947); experiment: KSHV LANA DNA-binding disruption – biochemical, fluorescence polarization, cherry-picked samples, dose response (AID 504725); parameters: species or system Human gammaherpesvirus 8;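 further: fluorescence polarization of a labeled DNA duplex reporting LANA DNA binding; potency is for inhibitors that block LANA binding to the DNA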
[8] = biological target: Troponin, cardiac muscle (Homo sapiens, UniProt P19429+P45379+P63316); experiment: compounds desensitizing RTF to calcium – biochemical, fluorescence, cardiac regulated thin filaments, triplicate IC50, dose response (AID 504742); format: protein-complex assay
[9] = biological target: T2, Heat shock 70 kDa protein 1A; experiment: small-molecule inhibition of Hsp70 – biochemical, TR-FRET (AID 786)
[10] = biological target: Large T antigen (Simian virus 40, UniProt P03070); format: functional, Betapolyomavirus macacae;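 further: Confirmatory-stage PubChem screen for compounds that inhibit SV40 T antigen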
[11] = biological target: Beta-adrenergic receptor kinase 1 (Homo sapiens, UniProt P25098); experiment: aptamer displacement from bead-bound GRK2 – biochemical, cherry pick 1, bead flow cytometry, dose response (AID 504500)
[12] = biological target: T4, Rac GTPase-activating protein 1 (Homo sapiens, UniProt Q9H0H5); experiment: blockers of MgcRacGAP-driven Rac1 GTP hydrolysis – biochemical, ADP Hunter fluorescence, primary and confirmatory, confirmation (AID 624330); format: functional
T4 sequence (Q9H0H5 whole entry): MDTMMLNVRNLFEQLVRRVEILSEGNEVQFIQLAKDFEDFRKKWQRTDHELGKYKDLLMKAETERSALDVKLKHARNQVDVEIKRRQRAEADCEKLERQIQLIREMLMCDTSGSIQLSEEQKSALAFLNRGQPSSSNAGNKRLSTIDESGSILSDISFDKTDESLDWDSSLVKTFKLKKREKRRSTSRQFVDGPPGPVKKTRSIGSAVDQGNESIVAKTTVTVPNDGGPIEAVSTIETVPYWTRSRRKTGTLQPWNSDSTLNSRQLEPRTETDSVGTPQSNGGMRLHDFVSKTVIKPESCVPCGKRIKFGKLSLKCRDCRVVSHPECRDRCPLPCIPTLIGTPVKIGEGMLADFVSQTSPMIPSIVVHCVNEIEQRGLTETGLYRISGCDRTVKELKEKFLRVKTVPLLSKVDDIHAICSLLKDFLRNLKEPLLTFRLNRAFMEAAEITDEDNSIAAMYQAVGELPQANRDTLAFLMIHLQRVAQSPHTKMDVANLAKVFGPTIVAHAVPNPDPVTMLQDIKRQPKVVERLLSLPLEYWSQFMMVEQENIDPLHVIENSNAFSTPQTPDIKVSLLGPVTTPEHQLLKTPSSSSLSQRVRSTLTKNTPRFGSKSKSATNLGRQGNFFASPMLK

[13] = biological target: T5, Zinc finger protein mex-5 (Caenorhabditis elegans, UniProt Q9XUB2); experiment: potency of MEX-5 RNA-binding blockers – biochemical, C. elegans, fluorescence polarization, dose response (AID 1960)
T5 sequence (Q9XUB2 whole entry): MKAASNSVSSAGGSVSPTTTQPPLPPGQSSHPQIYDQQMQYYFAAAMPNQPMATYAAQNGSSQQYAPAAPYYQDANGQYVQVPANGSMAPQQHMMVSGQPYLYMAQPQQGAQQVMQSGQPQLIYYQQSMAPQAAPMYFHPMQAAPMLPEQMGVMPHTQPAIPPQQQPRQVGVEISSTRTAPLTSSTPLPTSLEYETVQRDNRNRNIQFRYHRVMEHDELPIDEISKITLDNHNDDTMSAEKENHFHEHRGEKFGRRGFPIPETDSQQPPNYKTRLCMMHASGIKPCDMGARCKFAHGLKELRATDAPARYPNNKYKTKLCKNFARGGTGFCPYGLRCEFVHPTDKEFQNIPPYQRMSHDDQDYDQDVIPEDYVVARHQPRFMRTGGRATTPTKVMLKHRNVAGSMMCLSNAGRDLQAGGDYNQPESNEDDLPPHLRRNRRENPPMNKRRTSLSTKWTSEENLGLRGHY

[14] = biological target: T6, Histone-lysine N-methyltransferase NSD2 (Homo sapiens, UniProt O96028); format: biochemical
T6 sequence (O96028 whole entry): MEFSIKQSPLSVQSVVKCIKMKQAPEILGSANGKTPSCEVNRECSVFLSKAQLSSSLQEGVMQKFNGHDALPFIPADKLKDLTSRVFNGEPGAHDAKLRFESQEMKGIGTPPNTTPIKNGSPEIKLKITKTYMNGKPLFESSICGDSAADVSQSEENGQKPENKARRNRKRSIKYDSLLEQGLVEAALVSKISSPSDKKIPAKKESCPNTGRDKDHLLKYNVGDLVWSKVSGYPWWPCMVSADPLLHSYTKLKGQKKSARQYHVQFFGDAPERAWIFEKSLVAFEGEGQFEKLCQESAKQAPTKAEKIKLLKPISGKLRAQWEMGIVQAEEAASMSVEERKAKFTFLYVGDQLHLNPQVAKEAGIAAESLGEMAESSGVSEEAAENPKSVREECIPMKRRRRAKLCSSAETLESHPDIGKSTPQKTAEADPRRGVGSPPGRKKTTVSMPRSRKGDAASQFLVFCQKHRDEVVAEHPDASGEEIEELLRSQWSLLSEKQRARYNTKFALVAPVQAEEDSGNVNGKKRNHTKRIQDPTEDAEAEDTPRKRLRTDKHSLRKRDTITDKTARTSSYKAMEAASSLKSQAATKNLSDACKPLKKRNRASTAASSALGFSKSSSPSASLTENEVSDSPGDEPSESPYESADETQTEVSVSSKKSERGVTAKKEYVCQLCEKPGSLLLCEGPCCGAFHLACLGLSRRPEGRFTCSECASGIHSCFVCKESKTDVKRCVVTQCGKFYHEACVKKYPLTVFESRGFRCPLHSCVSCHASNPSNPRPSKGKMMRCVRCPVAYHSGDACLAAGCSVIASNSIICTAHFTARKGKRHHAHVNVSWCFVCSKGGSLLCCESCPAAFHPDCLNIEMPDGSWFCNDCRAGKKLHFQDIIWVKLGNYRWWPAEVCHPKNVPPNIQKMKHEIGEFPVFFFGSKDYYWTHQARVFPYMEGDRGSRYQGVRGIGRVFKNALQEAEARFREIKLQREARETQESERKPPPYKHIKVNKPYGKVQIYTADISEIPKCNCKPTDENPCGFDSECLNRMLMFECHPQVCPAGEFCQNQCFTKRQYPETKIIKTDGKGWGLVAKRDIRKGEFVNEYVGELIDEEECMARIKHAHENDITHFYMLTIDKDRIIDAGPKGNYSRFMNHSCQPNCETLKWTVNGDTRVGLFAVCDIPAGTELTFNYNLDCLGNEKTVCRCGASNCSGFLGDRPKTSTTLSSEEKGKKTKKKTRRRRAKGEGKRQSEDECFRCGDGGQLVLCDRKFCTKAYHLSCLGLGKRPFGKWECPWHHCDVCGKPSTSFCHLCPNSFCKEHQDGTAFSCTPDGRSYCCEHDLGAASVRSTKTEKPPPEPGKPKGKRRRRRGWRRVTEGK

[15] = viability loss in THP-1 monocytes – THP-1 cells, cytotoxicity control for Vif-APOBEC3G degradation inhibitor project, dose response (AID 1117359); format: functional; conditions: THP-1
[16] = biological target: Beta-2 adrenergic receptor (Homo sapiens, UniProt P07550); experiment: ADRB2 activation measured by internalization – cell-based, FAP fluorogen, flow cytometry, cherry pick 1, dose response (AID 588763); format: functional
Sequence of Beta-2 adrenergic receptor (P07550 whole entry): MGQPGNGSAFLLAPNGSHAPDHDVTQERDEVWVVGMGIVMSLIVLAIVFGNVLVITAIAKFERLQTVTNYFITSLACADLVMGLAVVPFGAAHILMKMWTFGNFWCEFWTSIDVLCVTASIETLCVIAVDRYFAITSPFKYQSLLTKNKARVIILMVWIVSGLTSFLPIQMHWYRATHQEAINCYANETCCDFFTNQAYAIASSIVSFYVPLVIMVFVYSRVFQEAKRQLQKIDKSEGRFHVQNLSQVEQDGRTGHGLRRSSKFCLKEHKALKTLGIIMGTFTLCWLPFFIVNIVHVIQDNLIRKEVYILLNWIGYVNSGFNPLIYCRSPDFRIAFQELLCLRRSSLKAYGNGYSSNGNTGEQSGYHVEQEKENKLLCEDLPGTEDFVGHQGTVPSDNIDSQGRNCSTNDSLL

T2 sequence (P0DMV8 whole entry, the tested form may be a part): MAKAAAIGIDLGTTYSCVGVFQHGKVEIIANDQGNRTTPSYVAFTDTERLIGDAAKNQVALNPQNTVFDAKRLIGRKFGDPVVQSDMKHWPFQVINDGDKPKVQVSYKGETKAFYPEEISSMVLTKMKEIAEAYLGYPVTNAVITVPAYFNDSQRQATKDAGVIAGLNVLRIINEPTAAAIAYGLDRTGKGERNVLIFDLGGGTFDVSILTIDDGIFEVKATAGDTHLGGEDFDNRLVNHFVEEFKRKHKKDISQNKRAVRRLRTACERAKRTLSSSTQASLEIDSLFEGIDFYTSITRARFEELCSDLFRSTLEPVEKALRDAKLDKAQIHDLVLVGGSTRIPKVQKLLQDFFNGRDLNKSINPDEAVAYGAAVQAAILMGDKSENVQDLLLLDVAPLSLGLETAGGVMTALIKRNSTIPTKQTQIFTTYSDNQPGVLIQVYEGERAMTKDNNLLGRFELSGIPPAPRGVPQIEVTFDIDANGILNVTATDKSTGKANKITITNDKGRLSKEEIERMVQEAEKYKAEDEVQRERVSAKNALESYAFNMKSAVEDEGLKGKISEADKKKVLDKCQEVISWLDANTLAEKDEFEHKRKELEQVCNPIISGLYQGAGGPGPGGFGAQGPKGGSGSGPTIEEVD
Sequence of Beta-adrenergic receptor kinase 1 (P25098 whole entry): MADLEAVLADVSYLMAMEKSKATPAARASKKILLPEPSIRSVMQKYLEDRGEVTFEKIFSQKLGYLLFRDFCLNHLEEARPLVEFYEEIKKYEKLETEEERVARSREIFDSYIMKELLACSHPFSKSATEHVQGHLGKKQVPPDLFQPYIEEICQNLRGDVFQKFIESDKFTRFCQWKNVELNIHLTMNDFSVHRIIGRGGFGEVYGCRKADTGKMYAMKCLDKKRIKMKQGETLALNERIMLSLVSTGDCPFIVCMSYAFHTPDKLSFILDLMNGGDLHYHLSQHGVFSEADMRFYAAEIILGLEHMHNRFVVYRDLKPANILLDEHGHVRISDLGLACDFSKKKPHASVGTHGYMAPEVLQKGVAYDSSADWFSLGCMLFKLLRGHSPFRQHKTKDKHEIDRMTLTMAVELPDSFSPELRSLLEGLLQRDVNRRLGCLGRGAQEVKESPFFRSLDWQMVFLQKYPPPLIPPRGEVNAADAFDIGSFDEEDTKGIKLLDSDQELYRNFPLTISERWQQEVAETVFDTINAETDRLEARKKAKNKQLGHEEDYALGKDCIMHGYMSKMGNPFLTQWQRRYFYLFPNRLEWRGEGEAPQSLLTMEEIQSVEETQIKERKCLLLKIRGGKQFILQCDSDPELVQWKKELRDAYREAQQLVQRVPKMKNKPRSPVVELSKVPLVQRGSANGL
Sequence of ORF 73 (O40947 whole entry): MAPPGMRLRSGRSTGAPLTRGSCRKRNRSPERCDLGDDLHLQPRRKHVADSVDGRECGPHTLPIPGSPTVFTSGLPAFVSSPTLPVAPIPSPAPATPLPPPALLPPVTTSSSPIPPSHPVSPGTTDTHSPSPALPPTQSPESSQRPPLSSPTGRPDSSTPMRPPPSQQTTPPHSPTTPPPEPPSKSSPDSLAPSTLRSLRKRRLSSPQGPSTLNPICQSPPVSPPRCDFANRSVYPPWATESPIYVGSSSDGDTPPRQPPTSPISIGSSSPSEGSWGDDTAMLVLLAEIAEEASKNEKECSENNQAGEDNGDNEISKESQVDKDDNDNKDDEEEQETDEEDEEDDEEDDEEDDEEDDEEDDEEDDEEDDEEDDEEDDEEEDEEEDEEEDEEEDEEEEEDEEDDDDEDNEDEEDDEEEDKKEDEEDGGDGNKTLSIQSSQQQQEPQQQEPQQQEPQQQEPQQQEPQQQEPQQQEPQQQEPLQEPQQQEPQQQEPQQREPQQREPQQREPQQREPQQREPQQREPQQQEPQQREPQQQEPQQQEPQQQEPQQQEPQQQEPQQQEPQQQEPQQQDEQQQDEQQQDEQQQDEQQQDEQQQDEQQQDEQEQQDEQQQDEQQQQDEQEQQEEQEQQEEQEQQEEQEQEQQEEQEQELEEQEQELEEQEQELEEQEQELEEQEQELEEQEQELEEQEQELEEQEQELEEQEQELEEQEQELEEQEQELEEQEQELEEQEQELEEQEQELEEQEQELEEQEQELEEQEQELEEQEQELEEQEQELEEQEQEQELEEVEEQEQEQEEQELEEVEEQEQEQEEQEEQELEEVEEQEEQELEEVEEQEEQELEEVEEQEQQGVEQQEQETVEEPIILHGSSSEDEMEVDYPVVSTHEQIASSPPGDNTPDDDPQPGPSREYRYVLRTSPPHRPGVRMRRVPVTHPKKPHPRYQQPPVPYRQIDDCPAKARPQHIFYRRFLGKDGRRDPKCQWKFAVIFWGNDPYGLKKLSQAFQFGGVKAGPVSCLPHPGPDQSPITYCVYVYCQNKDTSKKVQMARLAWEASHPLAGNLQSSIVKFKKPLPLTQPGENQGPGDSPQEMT
Sequence of Induced myeloid leukemia cell differentiation protein Mcl-1 (Q07820 whole entry): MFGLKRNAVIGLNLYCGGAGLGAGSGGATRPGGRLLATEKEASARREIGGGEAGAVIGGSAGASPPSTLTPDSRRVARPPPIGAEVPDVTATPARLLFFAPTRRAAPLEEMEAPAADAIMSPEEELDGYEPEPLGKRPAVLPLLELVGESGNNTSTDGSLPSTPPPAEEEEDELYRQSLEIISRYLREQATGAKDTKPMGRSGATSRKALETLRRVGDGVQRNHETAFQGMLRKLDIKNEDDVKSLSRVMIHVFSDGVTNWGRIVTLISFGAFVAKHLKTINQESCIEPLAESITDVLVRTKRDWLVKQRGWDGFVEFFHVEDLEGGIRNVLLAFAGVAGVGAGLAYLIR
Sequence of Hexokinase-1 (P19367 whole entry, the tested form may be a part): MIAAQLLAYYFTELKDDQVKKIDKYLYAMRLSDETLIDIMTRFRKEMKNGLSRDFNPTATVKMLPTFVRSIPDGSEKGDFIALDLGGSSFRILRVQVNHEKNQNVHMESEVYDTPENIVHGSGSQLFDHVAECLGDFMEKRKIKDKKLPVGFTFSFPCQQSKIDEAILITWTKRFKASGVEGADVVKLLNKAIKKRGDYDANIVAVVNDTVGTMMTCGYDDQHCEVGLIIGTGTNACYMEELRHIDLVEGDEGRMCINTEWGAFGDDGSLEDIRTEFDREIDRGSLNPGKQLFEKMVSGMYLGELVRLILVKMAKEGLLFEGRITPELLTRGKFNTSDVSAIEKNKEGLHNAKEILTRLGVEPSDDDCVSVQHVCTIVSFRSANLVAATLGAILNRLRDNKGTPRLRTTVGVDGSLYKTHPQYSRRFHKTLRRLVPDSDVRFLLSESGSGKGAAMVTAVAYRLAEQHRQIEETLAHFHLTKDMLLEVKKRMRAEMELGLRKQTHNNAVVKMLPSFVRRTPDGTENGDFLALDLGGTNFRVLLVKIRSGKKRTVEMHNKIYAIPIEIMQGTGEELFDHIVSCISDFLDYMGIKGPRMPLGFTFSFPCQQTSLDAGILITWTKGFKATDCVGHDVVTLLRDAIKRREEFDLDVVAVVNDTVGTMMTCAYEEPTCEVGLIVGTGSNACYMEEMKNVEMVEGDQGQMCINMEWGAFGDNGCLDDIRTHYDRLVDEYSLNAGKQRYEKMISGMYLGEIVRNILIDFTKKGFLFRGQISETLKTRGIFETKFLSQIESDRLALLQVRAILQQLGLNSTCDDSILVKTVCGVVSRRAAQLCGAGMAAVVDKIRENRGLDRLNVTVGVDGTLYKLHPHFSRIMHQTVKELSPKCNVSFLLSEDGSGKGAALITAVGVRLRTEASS
Sequence of Large T antigen (P03070 whole entry): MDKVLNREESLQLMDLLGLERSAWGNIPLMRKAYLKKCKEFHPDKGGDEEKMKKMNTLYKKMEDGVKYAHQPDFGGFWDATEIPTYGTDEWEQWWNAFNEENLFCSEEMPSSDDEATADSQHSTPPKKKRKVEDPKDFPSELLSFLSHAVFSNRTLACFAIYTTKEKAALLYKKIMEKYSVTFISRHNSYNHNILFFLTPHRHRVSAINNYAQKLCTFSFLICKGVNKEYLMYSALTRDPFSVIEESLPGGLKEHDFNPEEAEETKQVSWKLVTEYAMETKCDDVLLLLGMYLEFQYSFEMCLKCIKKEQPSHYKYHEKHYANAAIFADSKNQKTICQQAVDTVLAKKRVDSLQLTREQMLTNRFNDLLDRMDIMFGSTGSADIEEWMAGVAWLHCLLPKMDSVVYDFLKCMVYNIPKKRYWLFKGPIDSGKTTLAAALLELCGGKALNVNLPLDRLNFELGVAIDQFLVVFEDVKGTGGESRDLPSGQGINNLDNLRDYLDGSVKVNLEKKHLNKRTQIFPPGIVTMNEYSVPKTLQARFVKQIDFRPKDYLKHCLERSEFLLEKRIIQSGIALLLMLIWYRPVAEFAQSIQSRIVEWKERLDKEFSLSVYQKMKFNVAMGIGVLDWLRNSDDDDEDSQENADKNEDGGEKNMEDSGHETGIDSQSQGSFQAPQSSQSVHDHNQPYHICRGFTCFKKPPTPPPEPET

Compound: O=c1c2ccccc2nc(/C=C/c2cccnc2)n1-c1ccccc1
IC50 [1]: > 80 µM (inactive)
IC50 [2]: > 80 µM (inactive)

IC50 [3]: 1.18 µM (active)
IC50 [4]: 4.73 µM (active)
IC50 [5]: 21.7 µM (active)
EC50 [6]: 19.9 µM (active)
AC50 [7]: 18 µM (active)
IC50 [9]: 17.4 µM (active)
IC50 [10]: 27.6 µM (active)
EC50 [11]: 14.8 µM (inactive)
IC50 [12]: 66.7 µM (active)
EC50 [13]: 23.7 µM (inconclusive)
AC50 [14]: 2.19 µM (active)
Compound: CC1=NN(c2cccc(C(=O)O)c2)C(=O)/C1=C\C=C\c1ccco1
IC50 [8]: 15 µM (inactive)
CC50 [15]: > 40 µM (active)

EC50 [16]: 1.04 µM (active)
Compound: CCOC(=O)N1CCN(c2nnc(-c3ccc(C)cc3)c3ccccc23)CC1
